Experimental data published in patent US20120053168A1, “FUSED BENZOAZEPINES AS NEURONAL NICOTINIC ACETYLCHOLINE RECEPTOR LIGANDS” (Targacept, Inc., priority 2009, published 2012).

Legend:
[1] = tested on: mice impaired with scopolamine; experiment: Morris Water Maze (MWM) task, scopolamine-impaired; type: in vivo; settings: 1 mg/kg (5 μmol/kg) p.o., scopolamine 0.75 mg/kg s.c.
Experimental: In an animal model of spatial memory, the efficacy of Compound A (7,8,9,10-tetrahydro-6H-azepino[4,5-g]quinoxaline) to attenuate water-maze performances of mice impaired with scopolamine (0.75 mg/kg, s.c.) was evaluated. Following a two-day acclimation period to the maze, mice were trained for 4 days to a platform location in the maze. During the training sessions, each animal was given four trials separated by 5 minutes between each trial. The platform location was constant for each animal. Compound A (1, 3 and 10 mg/kg or 5, 15.1 and 50 μmol/kg, p.o.) was administered 25 minutes prior to each of the four training days. Scopolamine was administered 15 minutes prior to each of the four training days. The probe trial (i.e., no platform present) was conducted on day 5 under drug-free (i.e., water instead of Compound A and saline instead of scopolamine) conditions. In the MWM model, Compound A (1, 3 and 10 mg/kg) was orally administered 25 minutes whereas scopolamine was subcutaneously administered 15 minutes prior to each of the four training days. During training days, each animal was given four trials separated by 5 minutes between trials. The probe trial was conducted on day 5 under drug-free (i.e., water instead of Compound A and saline instead of scopolamine) conditions.

[2] = target: T1, human ganglionic nAChR subtype (Homo sapiens, UniProt P30926+P32297); experiment: 86Rb+ efflux in SH-SY5Y cells (human ganglionic nAChR subtype); type: cell-based
T1 construct: endogenous in cells; host or cells: SH-SY5Y human neuroblastoma cells
T1 sequence (P32297 32-505): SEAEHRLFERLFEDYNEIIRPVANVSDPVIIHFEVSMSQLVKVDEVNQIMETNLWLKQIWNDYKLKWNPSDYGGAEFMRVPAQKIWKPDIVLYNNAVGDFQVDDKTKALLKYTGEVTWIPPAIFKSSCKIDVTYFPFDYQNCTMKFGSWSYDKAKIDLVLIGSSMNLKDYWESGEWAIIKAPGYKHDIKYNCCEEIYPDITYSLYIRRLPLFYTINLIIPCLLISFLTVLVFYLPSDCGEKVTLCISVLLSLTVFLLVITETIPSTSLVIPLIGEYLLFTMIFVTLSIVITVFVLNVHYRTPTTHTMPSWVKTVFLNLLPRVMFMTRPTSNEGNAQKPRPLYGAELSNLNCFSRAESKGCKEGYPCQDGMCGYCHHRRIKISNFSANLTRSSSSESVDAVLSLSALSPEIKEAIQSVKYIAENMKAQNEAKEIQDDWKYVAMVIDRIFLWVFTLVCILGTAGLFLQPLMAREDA
T1 sequence (P30926 22-498): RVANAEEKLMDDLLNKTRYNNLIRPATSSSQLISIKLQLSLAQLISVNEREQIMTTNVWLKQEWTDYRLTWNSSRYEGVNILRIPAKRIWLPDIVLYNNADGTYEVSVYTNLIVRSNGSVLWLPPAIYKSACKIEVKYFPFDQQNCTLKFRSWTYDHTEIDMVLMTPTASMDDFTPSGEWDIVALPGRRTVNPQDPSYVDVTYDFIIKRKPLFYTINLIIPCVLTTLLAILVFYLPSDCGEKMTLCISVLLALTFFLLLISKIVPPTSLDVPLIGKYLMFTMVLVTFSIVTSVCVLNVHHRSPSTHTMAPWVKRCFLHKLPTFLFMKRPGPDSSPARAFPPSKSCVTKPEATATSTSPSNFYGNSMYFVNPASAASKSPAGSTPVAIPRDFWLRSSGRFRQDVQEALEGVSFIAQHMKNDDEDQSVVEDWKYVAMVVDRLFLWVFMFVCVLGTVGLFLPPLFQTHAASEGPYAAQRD
From the text: Example 8: Interaction at the Human Ganglionic nAChR Subtype
The cell line SH-SY5Y is a continuous line derived by sequential subcloning of the parental cell line, SK-N-SH, which was originally obtained from a human peripheral neuroblastoma. SH-SY5Y cells express a ganglion-like nAChR (Lukas et al., Mol. Cell. Neurosci. 4: 1 (1993)).
Human SH-SY5Y cells were maintained in proliferative growth phase according to routine protocols (Bencherif et al., Mol. Cell. Neurosci. 2: 52 (1991) and Bencherif et al., J. Pharmacol. Exp. Ther. 257: 946 (1991)). Cells were cultured in Dulbecco's modified Eagle's medium (Gibco/BRL) with 10% horse serum (Gibco/BRL), 5% fetal bovine serum (HyClone, Logan Utah), 1 mM sodium pyruvate, 4 mM L-Glutamine, and 50,000 units penicillin-streptomycin (Irvine Scientific). When cells were 80% confluent, they were plated to 12 well polystyrene plates (Costar). […]
Nicotinic acetylcholine receptor (nAChR) function was assayed using ^86Rb^+efflux according to a method described by Lukas et al., Anal. Biochem. 175: 212 (1988). […] Scintillation fluid was added and released radioactivity was measured by liquid scintillation counting. […]
When appropriate, dose-response curves of test compound were determined. The maximal activation for individual compounds (Emax) was determined as a percentage of the maximal activation induced by L-nicotine. […]

normal rats = experiment: Novel Object Recognition (NOR) task; type: in vivo, rat
Experimental: Episodic memory is a cognitive domain known to be impaired in Alzheimer's disease; the Novel Object Recognition task is a commonly used and quick, clean model used to assess potential cognitive benefit derived from the test compounds. Compound A (7,8,9,10-tetrahydro-6H-azepino[4,5-g]quinoxaline) improved long-term visual episodic/declarative memory as assessed by novel object recognition (NOR) task following oral dosing in normal rats. Memory was assessed by using the three-trial object recognition test. On the first day (exploratory trial), rats were allowed to explore an open arena (44.5×44.5×30.5 cm) for 6 min. On the second day (acquisition trial), rats were allowed to explore the same arena in the presence of two identical objects (both object A) for 3 minutes. On the third day (retention or recall trial), performance was evaluated by allowing the same animal to re-explore the arena for 3 minutes in the presence of two different objects: the familiar object A and a novel object B. An inter-trial interval of 24 hours was imposed between the three NOR trials. Recognition memory was assessed by comparing the time spent exploring a novel (object B) versus a familiar (object A) object during the recall trial. Recognition index was assessed for each animal and expressed as a ratio ((time B/time A+time B)×100).
Compound A was evaluated for its duration of effect in the NOR task in normal rats. Using similar experimental procedures as described earlier, 0.03, 0.1, and 0.3 mg/kg (0.15, 0.5 and 1.51 μmol/kg) Compound A was orally administered to animals 30 minutes prior to placement in the arena for the exploratory and acquisition trials. For the recall trial (i.e., third day of dosing), animals were placed in the arena at 6 h, post administration.
A follow-up NOR study evaluated the duration of effect of Compound A following a 6 h pre-treatment prior to the recall trial.

SMILES: c1cnc2cc3c(cc2n1)CCNCC3 [Compound A, 7,8,9,10-tetrahydro-6H-azepino[4,5-g]quinoxaline]
- effect on scopolamine-induced cognitive deficits, MWM [1]: reverse scopolamine-induced cognitive deficits
- EC50 ([2]; 86Rb+ efflux): 4.4 µM
- Emax ([2]; percentage of maximal activation induced by L-nicotine): 21%
- recognition index (normal rats; 0.03 mg/kg (0.15 μmol/kg) p.o., 6 h pre-treatment prior to the recall trial, vehicle 52±0.5%): 64±3%
- recognition index (normal rats; 0.3 mg/kg (1.5 μmol/kg) p.o., 30 minutes before the three trials, vehicle 50±0.5%): 69±5%
- recognition index (normal rats; 0.3 mg/kg (1.5 μmol/kg) p.o., 6 h pre-treatment prior to the recall trial, vehicle 52±0.5%): 68±3%
- recognition index (normal rats; 3 mg/kg (15.1 μmol/kg) p.o., 30 minutes before the three trials, vehicle 50±0.5%): 65±3%
- duration of effect on recognition memory index (normal rats; 0.15 and 1.51 μmol/kg p.o., recall trial 6 h post administration): facilitated recognition memory index for up to 6 h after dosing
- effect on recognition memory (enhancement of recognition index vs vehicle) (normal rats; 0.3 and 3 mg/kg p.o., 30 minutes before the three trials): facilitated recognition memory
